Measurements as given in PubChem BioAssay (NCI).
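Interpolation was linear, between the two tested concentrations surrounding the appropriate level; five concentrations were tested over 48 hours in 96-well plates. At the TGI there is no net growth.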 Where a SMILES comes first, the peptide text is derived from it. The star is where a group is joined. Boc = CC(C)(C)OC(=O)*; OtBu = CC(C)(C)O*

Columns and labels:
Assay in all cases: inhibition of tumour cell growth, NCI panel, 48 h
IGROV1 ovarian = system: IGROV1 ovarian
CCRF-CEM leukemia = system: CCRF-CEM leukemia
SK-OV-3 ovarian = system: SK-OV-3 ovarian
NCI-H226 lung = system: NCI-H226 lung
786-0 renal = system: 786-0 renal
MOLT-4 leukemia = system: MOLT-4 leukemia
A498 renal = system: A498 renal
UACC-257 melanoma = system: UACC-257 melanoma
HT29 colon = system: HT29 colon
HCC-2998 colon = system: HCC-2998 colon
ACHN renal = system: ACHN renal

| SMILES | TGI (IGROV1 ovarian) | TGI (CCRF-CEM leukemia) | TGI (SK-OV-3 ovarian) | TGI (NCI-H226 lung) | TGI (786-0 renal) | TGI (MOLT-4 leukemia) | TGI (A498 renal) | TGI (UACC-257 melanoma) | TGI (HT29 colon) | TGI (HCC-2998 colon) | TGI (ACHN renal) |
| --- | --- | --- | --- | --- | --- | --- | --- | --- | --- | --- | --- |
| O=C(NNC(=O)c1cc2ccccc2[nH]1)c1cc2ccccc2[nH]1 | > 100 µM | > 100 µM | > 100 µM | > 100 µM | > 100 µM | > 100 µM | > 100 µM | > 100 µM | > 100 µM | – | – |
| CC(=O)OCC1OC(Sc2nc(-c3ccccc3)c(C#N)c(=O)n2C2OC(COC(C)=O)C(OC(C)=O)C(OC(C)=O)C2OC(C)=O)C(OC(C)=O)C(OC(C)=O)C1OC(C)=O (configuration not stated) | > 100 µM | – | > 100 µM | > 100 µM | > 100 µM | > 100 µM | > 100 µM | > 100 µM | > 100 µM | > 100 µM | > 100 µM |
| CN1CN(c2ccccc2)C2(CCN(CCCN(C)c3ccc(F)cc3)CC2)C1=O | 34.6 µM | 62.1 µM | 42.3 µM | 45.1 µM | 42.2 µM | 54.7 µM | 72.6 µM | 33.6 µM | 22.6 µM | – | 53.2 µM |
| Cc1[nH]n(C(=O)Cc2ccccc2)c(=O)c1/C=C1\C(=O)C=Cc2ccccc21 | – | 93.4 µM | – | > 100 µM | > 100 µM | > 100 µM | – | > 100 µM | > 100 µM | > 100 µM | > 100 µM |
| CCOC(=O)c1c2ccccc2n2c(=O)n(-c3ccccc3)nnc12 | > 100 µM | > 69.5 µM | > 85 µM | > 100 µM | > 100 µM | – | > 100 µM | > 100 µM | – | > 100 µM | > 100 µM |
| CC(C)(C)OC(=O)CC(NC(=O)OC(C)(C)C)C(=O)NC(Cc1ccccc1)C(N)=O (configuration not stated) (Boc-Asp(OtBu)-Phe-NH2; configuration not given here) | > 100 µM | > 100 µM | > 100 µM | > 100 µM | > 100 µM | – | > 100 µM | > 100 µM | > 100 µM | – | > 100 µM |
| Cc1ccc(Nc2nc3ccccc3nc2NS(=O)(=O)c2ccc(N)cc2)cc1 | > 100 µM | 70.7 µM | > 100 µM | > 100 µM | > 100 µM | 81.8 µM | – | > 100 µM | > 100 µM | 6.55 µM | > 100 µM |
| COc1nc2c(c(=O)[nH]1)N=C(c1ccc([N+](=O)[O-])cc1)CC(c1ccccc1)N2 (configuration not stated) | > 100 µM | > 100 µM | – | > 100 µM | > 100 µM | > 100 µM | > 100 µM | > 100 µM | > 100 µM | > 100 µM | > 100 µM |
| COc1ccc(CC(COS(=O)(=O)c2ccc(C)cc2)NS(=O)(=O)c2ccc(C)cc2)cc1 (configuration not stated) | 30.1 µM | – | 43.7 µM | 27.7 µM | 53.1 µM | > 100 µM | 35.8 µM | 67.1 µM | > 50.9 µM | 29.5 µM | 49.2 µM |
| CCOC(=O)c1sc(N)nc1N1CCCC1 | > 100 µM | > 100 µM | > 100 µM | > 100 µM | > 100 µM | > 100 µM | > 100 µM | > 100 µM | > 100 µM | – | > 100 µM |
| C[N+](C)(C)CC(=O)N/N=C\c1c(O)ccc2ccccc12 | > 100 µM | 76.1 µM | > 100 µM | 85.9 µM | > 100 µM | 51.7 µM | 97.8 µM | > 100 µM | > 100 µM | – | > 100 µM |
| COC(=O)c1c(C(=O)OC)c2ccccn2c1-c1cc(C)cc2c1C(=O)C=CC2=O | 17.3 µM | 3.65 µM | – | 19.7 µM | 11.3 µM | 3.76 µM | 17.5 µM | 13.6 µM | 16.6 µM | 20.1 µM | 17.2 µM |
| COc1cccc(O)c1-c1cc(=O)c2c(O)c(OC)c(OC)c(OC)c2o1 | > 100 µM | > 100 µM | 89.3 µM | > 100 µM | > 100 µM | 97.7 µM | – | 80.5 µM | 91 µM | 25.4 µM | > 100 µM |
| CCOc1cc(NC(C)=O)ccc1C(=O)NN1C(=O)/C(=C/c2ccc(Cl)cc2)N=C1c1ccccc1 | > 100 µM | 93 µM | > 100 µM | > 100 µM | > 100 µM | > 100 µM | 81.4 µM | > 100 µM | > 100 µM | – | > 100 µM |
| COc1ccc(CCN2C(=O)C(=O)C(C(=O)c3ccccc3)C2c2ccccc2)cc1OC (configuration not stated) | > 100 µM | > 100 µM | > 100 µM | – | > 100 µM | > 100 µM | > 100 µM | > 100 µM | > 100 µM | > 100 µM | > 100 µM |
| C=C1C(=O)O[C@H]2[C@@H]3O[C@@](C)(CC/C=C(\C)CCC[C@@H]2C)[C@H](O)C[C@@H]13 | 35.6 µM | 81.5 µM | 32.5 µM | 5.89 µM | 16.2 µM | – | > 100 µM | 27.4 µM | 3.94 µM | 31.6 µM | 6.25 µM |
| CCOC(=O)c1nc2ccccc2nc1Oc1ccc(F)cc1 | > 100 µM | > 100 µM | > 100 µM | > 100 µM | > 100 µM | – | > 100 µM | > 100 µM | > 100 µM | – | > 100 µM |
| CC1=C(C(N)=O)C(c2ccncc2)C(C#N)C(=O)N1 (configuration not stated) | > 100 µM | > 100 µM | > 100 µM | – | > 100 µM | > 100 µM | > 100 µM | > 100 µM | – | > 100 µM | > 100 µM |
| CC(C)=CCN1c2ccccc2[C@@]2(CC=C(C)C)CCN(C)[C@@H]12 | > 100 µM | > 100 µM | 77.1 µM | > 100 µM | 53 µM | > 100 µM | – | – | 90.4 µM | 29.5 µM | > 100 µM |
| COc1ccc(N(c2ccc(C#N)cc2)c2ccc(C#N)cc2)cc1 | > 100 µM | > 100 µM | > 100 µM | > 100 µM | > 100 µM | > 100 µM | > 100 µM | > 100 µM | > 100 µM | – | > 100 µM |
| NC(Cc1c2ccccc2cc2ccccc12)C(=O)O (configuration not stated) | > 100 µM | > 100 µM | > 100 µM | > 100 µM | > 100 µM | 94.4 µM | – | > 100 µM | > 100 µM | > 100 µM | > 100 µM |
